The values that follow come from patent US8613914B2, “Peptidomimetic sulfamide compounds and antiviral uses thereof” (Novartis AG, priority 2009, dated 2013).

Sequence of HCV NS3-4A serine protease (full-length NS3-4A protein) (P26664 1027-1657): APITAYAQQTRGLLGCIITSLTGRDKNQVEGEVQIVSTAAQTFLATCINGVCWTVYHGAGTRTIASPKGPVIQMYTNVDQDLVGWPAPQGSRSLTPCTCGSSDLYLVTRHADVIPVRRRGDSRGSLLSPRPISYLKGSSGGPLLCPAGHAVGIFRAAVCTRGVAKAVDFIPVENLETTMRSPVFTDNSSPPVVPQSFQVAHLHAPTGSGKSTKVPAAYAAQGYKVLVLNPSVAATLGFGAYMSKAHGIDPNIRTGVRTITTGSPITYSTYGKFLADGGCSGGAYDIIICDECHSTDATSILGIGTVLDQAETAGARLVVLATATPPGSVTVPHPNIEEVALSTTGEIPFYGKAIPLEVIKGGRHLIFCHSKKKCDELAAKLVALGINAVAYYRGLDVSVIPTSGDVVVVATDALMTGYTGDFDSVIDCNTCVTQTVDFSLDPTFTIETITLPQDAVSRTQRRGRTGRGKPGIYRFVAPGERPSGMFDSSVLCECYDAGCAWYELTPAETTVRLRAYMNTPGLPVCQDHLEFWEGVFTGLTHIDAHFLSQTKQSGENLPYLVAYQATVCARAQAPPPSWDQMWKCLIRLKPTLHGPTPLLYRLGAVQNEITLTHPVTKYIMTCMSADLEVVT
Sequence of HCV NS3-4A serine protease (full-length NS3-4A protein) (P26664 1658-1711 partner): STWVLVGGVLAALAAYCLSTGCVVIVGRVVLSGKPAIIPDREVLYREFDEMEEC

This experiment has as its target HCV NS3-4A serine protease (full-length NS3-4A protein) (Hepatitis C virus genotype 1a (isolate 1) (HCV), UniProt P26664). As to the kind of experiment: HCV NS3-4A protease assay. In kind it is biochemical, HCV genotype 1a. Conditions: strain HCV-1, fluorogenic peptide substrate, read-out: Protease assay Ex. 12 IC50. Here is the method: The inhibitory activity of certain compounds of Table A against HCV NS3-4A serine protease is determined in a homogenous assay using the full-length NS3-4A protein (genotype 1a, strain HCV-1) and a commercially available internally-quenched fluorogenic peptide substrate as described by Taliani, M., et al. 1996 Anal. Biochem. 240:60-67, which is incorporated by reference in its entirety.
In the case of `C=C[C@@H]1C[C@]1(NC(=O)[C@@H]1C[C@@]2(CN1C(=O)[C@@H](NC(=O)[C@@H](NC(=O)c1cnc3ccccc3c1)C1CCCCC1)C(C)(C)C)C(C)(C)C21CCC1)C(=O)NS(=O)(=O)N1CCCC1` [Compound 196, (5R,8S)-7-[(2S)-2-({cyclohexyl[(quinolin-3-ylcarbonyl)amino]acetyl}amino)-3,3-dimethylbutanoyl]-10,10-dimethyl-N-{(1R,2S)-1-[(pyrrolidin-1-ylsulfonyl)carbamoyl]-2-vinylcyclopropyl}-7-azadispiro[3.0.4.1]decane-8-carboxamide], the IC50 was determined as 20 nM.
`[2H]C([2H])([2H])N(C([2H])([2H])[2H])S(=O)(=O)NC(=O)[C@@]1(NC(=O)[C@@H]2C[C@@]3(CN2C(=O)[C@@H](NC(=O)[C@@H](NC(=O)[C@@H]2CCCCN2C(C)C)C2CCCCC2)C(C)(C)C)C(C)(C)C32CCC2)C[C@H]1C=C` [Compound 148, (5R,8S)-7-[(2S)-2-{[(2S)-2-cyclohexyl-2-({[(2S)-1-isopropylpiperidin-2-yl]carbonyl}amino)acetyl]amino}-3,3-dimethylbutanoyl]-N-[(1R,2S)-1-{[(d6-dimethylamino)sulfonyl]carbamoyl}-2-vinylcyclopropyl]-10,10-dimethyl-7-azadispiro[3.0.4.1]decane-8-carboxamide-d6]: the IC50 is 0.8 nM.
The figure for `C=C[C@@H]1C[C@]1(NC(=O)[C@@H]1C[C@@]2(CN1C(=O)[C@@H](NC(=O)[C@@H](NC(=O)[C@@H]1CCCN1CC)C1CCCCC1)C(C)(C)C)C(C)(C)C21CCC1)C(=O)NS(=O)(=O)N(C)CCC` [Compound 98, (5R,8S)-7-[(2S)-2-{[(2S)-2-cyclohexyl-2-({[(2S)-1-ethylpyrrolidin-2-yl]carbonyl}amino)acetyl]amino}-3,3-dimethylbutanoyl]-10,10-dimethyl-N-[(1R,2S)-1-({[methyl(propyl)amino]sulfonyl}carbamoyl)-2-vinylcyclopropyl]-7-azadispiro[3.0.4.1]decane-8-carboxamide] is 7 nM.
Consider `C=C[C@@H]1C[C@]1(NC(=O)[C@@H]1C[C@@]2(CN1C(=O)[C@@H](NC(=O)[C@@H](NC(=O)[C@@H]1CCCCN1C(C)C)C1CCCCC1)C1(C)CCOCC1)C(C)(C)C21CCC1)C(=O)NS(=O)(=O)N(CC)CC` [Compound 150, (5R,8S)-7-[(2S)-2-{[(2S)-2-cyclohexyl-2-({[(2S)-1-isopropylpiperidin-2-yl]carbonyl}amino)acetyl]amino}-2-(4-methyltetrahydro-2H-pyran-4-yl)acetyl]-N-[(1R,2S)-1-{[(diethylamino)sulfonyl]carbamoyl}-2-vinylcyclopropyl]-10,10-dimethyl-7-azadispiro[3.0.4.1]decane-8-carboxamide], for which the IC50 worked out at 2.4 nM.
With `C=C[C@@H]1C[C@]1(NC(=O)[C@@H]1C[C@@]2(CN1C(=O)[C@@H](NC(=O)[C@@H](NC(=O)C(C)(C)N1CCCCC1)C(C)(C)C)C(C)(C)C)C(C)(C)C21CCC1)C(=O)NS(=O)(=O)N1CCCC1` [Compound 24, (5R,8S)-7-[(2S)-2-({(2S)-3,3-dimethyl-2-[(2-methyl-2-piperidin-1-ylpropanoyl)amino]butanoyl}amino)-3,3-dimethylbutanoyl]-10,10-dimethyl-N-{(1R,2S)-1-[(pyrrolidin-1-ylsulfonyl)carbamoyl]-2-vinylcyclopropyl}-7-azadispiro[3.0.4.1]decane-8-carboxamide], the IC50 amounted to 65 nM.
To `C=C[C@@H]1C[C@]1(NC(=O)[C@@H]1C[C@@]2(CN1C(=O)[C@@H](NC(=O)[C@@H](NC(=O)c1cnn(-c3ccccc3)c1)C1CCCCC1)C(C)(C)C)C(C)(C)C21CCC1)C(=O)NS(=O)(=O)N1CCCC1` [Compound 184, (5R,8S)-7-{(2S)-2-[(cyclohexyl{[(1-phenyl-1H-pyrazol-4-yl)carbonyl]amino}acetyl)amino]-3,3-dimethylbutanoyl}-10,10-dimethyl-N-{(1R,2S)-1-[(pyrrolidin-1-ylsulfonyl)carbamoyl]-2-vinylcyclopropyl}-7-azadispiro[3.0.4.1]decane-8-carboxamide] belongs 35 nM; to `C=C[C@@H]1C[C@]1(NC(=O)[C@@H]1C[C@@]2(CN1C(=O)[C@@H](NC(=O)[C@@H](NC(=O)[C@H]1CCCCN1C(C)C)C1CCCCC1)C(C)(C)C)C(C)(C)C21CCC1)C(=O)NS(=O)(=O)N(C)CC` [Compound 92, (5R,8S)-7-[(2S)-2-{[(2S)-2-cyclohexyl-2-({[(2R)-1-isopropylpiperidin-2-yl]carbonyl}amino)acetyl]amino}-3,3-dimethylbutanoyl]-N-[(1R,2S)-1-({[ethyl(methyl)amino]sulfonyl}carbamoyl)-2-vinylcyclopropyl]-10,10-dimethyl-7-azadispiro[3.0.4.1]decane-8-carboxamide], 3 nM; to `C=C[C@@H]1C[C@]1(NC(=O)[C@@H]1C[C@@]2(CN1C(=O)[C@@H](NC(=O)[C@@H](NC(=O)[C@@H]1CCCCN1C1CCCC1)C(C)(C)C)C(C)(C)C)C(C)(C)C21CCC1)C(=O)NS(=O)(=O)N1CCCC1` [Compound 31, (5R,8S)-7-[(2S)-2-{[(2S)-2-({[(2S)-1-cyclopentylpiperidin-2-yl]carbonyl}amino)-3,3-dimethylbutanoyl]amino}-3,3-dimethylbutanoyl]-10,10-dimethyl-N-{(1R,2S)-1-[(pyrrolidin-1-ylsulfonyl)carbamoyl]-2-vinylcyclopropyl}-7-azadispiro[3.0.4.1]decane-8-carboxamide], 8 nM.
For the compound `C=C[C@@H]1C[C@]1(NC(=O)[C@@H]1C[C@@]2(CN1C(=O)[C@@H](NC(=O)[C@@H](NC(=O)[C@@H]1CCCN1CC)C1(C)CCCCC1)C(C)(C)C)C(C)(C)C21CCC1)C(=O)NS(=O)(=O)N1CCCC1` [Compound 136, (5R,8S)-7-[(2S)-2-{[(2S)-2-({[(2S)-1-ethylpyrrolidin-2-yl]carbonyl}amino)-2-(1-methylcyclohexyl)acetyl]amino}-3,3-dimethylbutanoyl]-10,10-dimethyl-N-{(1R,2S)-1-[(pyrrolidin-1-ylsulfonyl)carbamoyl]-2-vinylcyclopropyl}-7-azadispiro[3.0.4.1]decane-8-carboxamide], the IC50 came to 7 nM.
`C=C[C@@H]1C[C@]1(NC(=O)[C@@H]1C[C@@]2(CN1C(=O)[C@@H](NC(=O)[C@@H](NC(=O)[C@H]1CCCCN1CC)C1CCCCC1)C(C)(C)C)C(C)(C)C21CCC1)C(=O)NS(=O)(=O)N1CCCC1` [Compound 36, (5R,8S)-7-[(2S)-2-{[(2S)-2-cyclohexyl-2-({[(2R)-1-ethylpiperidin-2-yl]carbonyl}amino)acetyl]amino}-3,3-dimethylbutanoyl]-10,10-dimethyl-N-{(1R,2S)-1-[(pyrrolidin-1-ylsulfonyl)carbamoyl]-2-vinylcyclopropyl}-7-azadispiro[3.0.4.1]decane-8-carboxamide]: the half-maximal inhibitory concentration (IC50) amounted to 3.5 nM.
For the compound `C=C[C@@H]1C[C@]1(NC(=O)[C@@H]1C[C@@]2(CN1C(=O)[C@@H](NC(=O)[C@@H](NC(=O)[C@@H]1CCCCN1CC)C1CCCCC1)C1(C)CCOCC1)C(C)(C)C21CCC1)C(=O)NS(=O)(=O)N(CC)CC` [Compound 151, (5R,8S)-7-[(2S)-2-{[(2S)-2-cyclohexyl-2-({[(2S)-1-ethylpiperidin-2-yl]carbonyl}amino)acetyl]amino}-2-(4-methyltetrahydro-2H-pyran-4-yl)acetyl]-N-[(1R,2S)-1-{[(diethylamino)sulfonyl]carbamoyl}-2-vinylcyclopropyl]-10,10-dimethyl-7-azadispiro[3.0.4.1]decane-8-carboxamide], the IC50 is 2 nM.
As to `CC[C@@H]1C[C@]1(NC(=O)[C@@H]1C[C@@]2(CN1C(=O)[C@@H](NC(=O)[C@@H](NC(=O)[C@@H]1CCCCN1CC)C1CCCCC1)C(C)(C)C)C(C)(C)C21CCC1)C(=O)NS(=O)(=O)N(CC)CC` [Compound 86, (5R,8S)-7-[(2S)-2-{[(2S)-2-cyclohexyl-2-({[(2S)-1-ethylpiperidin-2-yl]carbonyl}amino)acetyl]amino}-3,3-dimethylbutanoyl]-N-[(1R,2R)-1-{[(diethylamino)sulfonyl]carbamoyl}-2-ethylcyclopropyl]-10,10-dimethyl-7-azadispiro[3.0.4.1]decane-8-carboxamide], the IC50 amounted to 4.5 nM.
With `C=C[C@@H]1C[C@]1(NC(=O)[C@@H]1C[C@@]2(CN1C(=O)[C@@H](NC(=O)[C@@H](NC(=O)[C@@H]1CCCCN1C(C)C)C1CCCCC1)C(C)(C)C)C(C)(C)C21CCC1)C(=O)NS(=O)(=O)N(CC)CCF` [Compound 156, (5R,8S)-7-[(2S)-2-{[(2S)-2-cyclohexyl-2-({[(2S)-1-isopropylpiperidin-2-yl]carbonyl}amino)acetyl]amino}-3,3-dimethylbutanoyl]-N-[(1R,2S)-1-({[ethyl(2-fluoroethyl)amino]sulfonyl}carbamoyl)-2-vinylcyclopropyl]-10,10-dimethyl-7-azadispiro[3.0.4.1]decane-8-carboxamide], the half-inhibitory concentration (IC50) turned out to be 1.3 nM.
To `C=C[C@@H]1C[C@]1(NC(=O)[C@@H]1C[C@@]2(CN1C(=O)[C@@H](NC(=O)[C@@H](NC(=O)[C@@H]1CCCCN1C(C)C)C1CCCCC1)C(C)(C)C)C(C)(C)C21CCC1)C(=O)NS(=O)(=O)NC(C)(C)C` [Compound 169, (5R,8S)-N-[(1R,2S)-1-{[(tert-butylamino)sulfonyl]carbamoyl}-2-vinylcyclopropyl]-7-[(2S)-2-{[(2S)-2-cyclohexyl-2-({[(2S)-1-isopropylpiperidin-2-yl]carbonyl}amino)acetyl]amino}-3,3-dimethylbutanoyl]-10,10-dimethyl-7-azadispiro[3.0.4.1]decane-8-carboxamide] belongs 1.5 nM; to `C=C[C@@H]1C[C@]1(NC(=O)[C@@H]1C[C@@]2(CN1C(=O)[C@@H](NC(=O)CC1(CC#N)CCCCC1)C(C)(C)C)C(C)(C)C21CCC1)C(=O)NS(=O)(=O)N1CCCC1` [Compound 61, (5R,8S)-7-[(2S)-2-({[1-(cyanomethyl)cyclohexyl]acetyl}amino)-3,3-dimethylbutanoyl]-10,10-dimethyl-N-{(1R,2S)-1-[(pyrrolidin-1-ylsulfonyl)carbamoyl]-2-vinylcyclopropyl}-7-azadispiro[3.0.4.1]decane-8-carboxamide], 750 nM.

As a reminder, the IC50 is the midpoint of a concentration-inhibition curve.
